In the supplement of paper PMC4932681:

What was measured:
T-47D Tam2 = assay: drug sensitivity score (DSS) (DSS (dimensionless)); higher = more sensitive; extreme values may be limits of the assay; details: 4-OH-tamoxifen in medium 1 µM; 72 h
Method: (§1)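 FIMM FO2B library drugs were tested at 5 concentrations (10,000-fold range) for 72 h, with CellTiter-Glo viability normalised to DMSO and benzethonium chloride controls. The Drug Sensitivity Score (DSS) is computed from the fitted logistic dose-response curve (area-based; 0 = inactive). Resistant lines and the 'in 1µM tamoxifen' arms were tested in 1 µM 4-OH-tamoxifen.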

ZR-75-1 Tam2 [1] = assay: as above; details: 4-OH-tamoxifen in medium 1 µM; 72 h
Method: as §1

ZR-75-1 Tam1 [2] = assay: as above; details: 4-OH-tamoxifen in medium 1 µM; 72 h
Method: as §1

BT-474 Tam2 [3] = assay: as above; details: 4-OH-tamoxifen in medium 1 µM; 72 h
Method: as §1

MCF-7 Tam1 [4] = assay: as above; details: 4-OH-tamoxifen in medium 1 µM; 72 h
Method: as §1

T-47D Tam1 [5] = assay: as above; details: 4-OH-tamoxifen in medium 1 µM; 72 h
Method: as §1

BT-474 Tam1 [6] = assay: as above; details: 4-OH-tamoxifen in medium 1 µM; 72 h
Method: as §1

ZR-75-1 [7] = assay: as above; details: 72 h
Method: as §1

MCF-7 [8] = assay: as above; details: 72 h
Method: as §1

BT-474 [9] = assay: as above; details: 72 h
Method: as §1

T-47D [10] = assay: as above; details: 72 h
Method: as §1

ZR-75-1 Tam2 [11] = assay: relative IC50 (midpoint of fitted logistic curve, plateau may be below 50% inhibition; CellTiter-Glo viability); higher = less potent; details: 4-OH-tamoxifen in medium 1 µM; 72 h
Method: (§2)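 FIMM FO2B library drugs were plated at 5 concentrations spanning a 10,000-fold range in 384-well plates. Cells were incubated for 72 h at 37 °C and viability was read by CellTiter-Glo, normalised to DMSO (0% inhibition) and 100 µM benzethonium chloride (100% inhibition). IC50 values come from logistic dose-response fits (Breeze pipeline). Tamoxifen-resistant lines and the 'in 1µM tamoxifen' parental arms were tested in medium with 1 µM 4-OH-tamoxifen.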

ZR-75-1 Tam1 [12] = assay: as above; details: 4-OH-tamoxifen in medium 1 µM; 72 h
Method: as §2

BT-474 Tam2 [13] = assay: as above; details: 4-OH-tamoxifen in medium 1 µM; 72 h
Method: as §2

MCF-7 Tam1 [14] = assay: as above; details: 4-OH-tamoxifen in medium 1 µM; 72 h
Method: as §2

BT-474 Tam1 [15] = assay: as above; details: 4-OH-tamoxifen in medium 1 µM; 72 h
Method: as §2

ZR-75-1 [16] = assay: as above; details: 72 h
Method: as §2

MCF-7 [17] = assay: as above; details: 72 h
Method: as §2

BT-474 [18] = assay: as above; details: 72 h
Method: as §2

T-47D [19] = assay: as above; details: 72 h
Method: as §2

T-47D Tam1 [20] = assay: as above; details: 4-OH-tamoxifen in medium 1 µM; 72 h
Method: as §2

| SMILES | relative IC50 (BT-474 Tam2 [13]) [µM] | relative IC50 (MCF-7 Tam1 [14]) [µM] | relative IC50 (BT-474 Tam1 [15]) [µM] | relative IC50 (MCF-7 [17]; 4-OH-tamoxifen in medium 0 µM) [µM] | relative IC50 (BT-474 [18]; 4-OH-tamoxifen in medium 0 µM) [µM] | relative IC50 (BT-474 [18]; 4-OH-tamoxifen in medium 1 µM) [µM] | relative IC50 (T-47D [19]; 4-OH-tamoxifen in medium 0 µM) [µM] | relative IC50 (T-47D [19]; 4-OH-tamoxifen in medium 1 µM) [µM] | relative IC50 (T-47D Tam1 [20]) [µM] | relative IC50 (MCF-7 [17]; 4-OH-tamoxifen in medium 1 µM) [µM] | drug sensitivity score (T-47D Tam2) | drug sensitivity score (ZR-75-1 Tam2 [1]) | drug sensitivity score (ZR-75-1 Tam1 [2]) | drug sensitivity score (BT-474 Tam2 [3]) | drug sensitivity score (MCF-7 Tam1 [4]) | drug sensitivity score (T-47D Tam1 [5]) | drug sensitivity score (BT-474 Tam1 [6]) | drug sensitivity score (ZR-75-1 [7]; 4-OH-tamoxifen in medium 0 µM) | drug sensitivity score (ZR-75-1 [7]; 4-OH-tamoxifen in medium 1 µM) | drug sensitivity score (MCF-7 [8]; 4-OH-tamoxifen in medium 0 µM) | drug sensitivity score (MCF-7 [8]; 4-OH-tamoxifen in medium 1 µM) | drug sensitivity score (BT-474 [9]; 4-OH-tamoxifen in medium 0 µM) | drug sensitivity score (BT-474 [9]; 4-OH-tamoxifen in medium 1 µM) | drug sensitivity score (T-47D [10]; 4-OH-tamoxifen in medium 0 µM) | drug sensitivity score (T-47D [10]; 4-OH-tamoxifen in medium 1 µM) | relative IC50 (ZR-75-1 Tam2 [11]) [µM] | relative IC50 (ZR-75-1 Tam1 [12]) [µM] | relative IC50 (ZR-75-1 [16]; 4-OH-tamoxifen in medium 0 µM) [µM] | relative IC50 (ZR-75-1 [16]; 4-OH-tamoxifen in medium 1 µM) [µM] |
| --- | --- | --- | --- | --- | --- | --- | --- | --- | --- | --- | --- | --- | --- | --- | --- | --- | --- | --- | --- | --- | --- | --- | --- | --- | --- | --- | --- | --- | --- |
| CN(C)CCN1C(=O)c2cccc3cc(N)cc(c23)C1=O [Amonafide] | > 10 | > 10 | > 10 | 3.26 | > 10 | > 10 |  | > 10 | > 10 |  | 0 | 0.594 | 0.0369 | 0 | 0 | 0 | 0 | 1.49 | 0.169 | 2.63 | 0.126 | 0 | 0 | 0.496 | 0 |  |  | 3.51 |  |
| Nc1nc(Cl)nc2c1ncn2[C@@H]1O[C@H](CO)[C@@H](O)[C@@H]1F [Clofarabine] | > 10 | > 10 | > 10 | 0.49 | > 10 | > 10 | 4.1 |  | 0.616 |  | 1.77 | 0.782 | 1.26 | 0 | 0 | 5.4 | 0 | 0.522 | 0.104 | 4.41 | 2.44 | 0 | 0 | 1.21 | 0.982 |  |  |  |  |
| C[C@@H]1C[C@H]2[C@@H]3CCC4=CC(=O)C=C[C@]4(C)[C@@]3(F)[C@@H](O)C[C@]2(C)[C@@]1(O)C(=O)CO [Dexamethasone  (Decadron)] | > 10 | > 10 |  | > 10 | > 10 | > 10 | > 10 | > 10 | > 10 |  | 0 | 0.209 | 0 | 0 | 0 | 0 | 0 | 0 | 0 | 0 | 1.88 | 0 | 0 | 0 | 0 |  | > 10 | > 10 | > 10 |
| O=c1[nH]c(=O)n([C@H]2C[C@H](O)[C@@H](CO)O2)cc1F [Floxuridine] | > 10 | > 10 | > 10 |  | 2.41 |  |  | > 10 | 1.39 | > 10 | 1.26 | 4.86 | 0.801 | 0 | 0 | 5.88 | 0 | 6.61 | 0.31 | 0.48 | 0 | 1.78 | 1.44 | 1.05 | 0 |  |  |  |  |
| CO[C@@]12[C@H](COC(N)=O)C3=C(C(=O)C(C)=C(N)C3=O)N1C[C@@H]1N[C@@H]12 [Mitomycin C] | > 10 | > 10 | > 10 |  | > 10 | > 10 |  | > 10 | 3.57 |  | 0.0558 | 1.28 | 1.75 | 0 | 0 | 1.35 | 0 | 0.734 | 0.75 | 0.369 | 0.228 | 0 | 0 | 0.988 | 0 |  |  |  |  |

Further lines, with some results ahead:

| relative IC50 (BT-474 Tam2 [13]) [µM] | relative IC50 (MCF-7 Tam1 [14]) [µM] | relative IC50 (BT-474 Tam1 [15]) [µM] | relative IC50 (MCF-7 [17]; 4-OH-tamoxifen in medium 0 µM) [µM] | relative IC50 (BT-474 [18]; 4-OH-tamoxifen in medium 0 µM) [µM] | relative IC50 (BT-474 [18]; 4-OH-tamoxifen in medium 1 µM) [µM] | relative IC50 (T-47D [19]; 4-OH-tamoxifen in medium 0 µM) [µM] | relative IC50 (T-47D [19]; 4-OH-tamoxifen in medium 1 µM) [µM] | relative IC50 (T-47D Tam1 [20]) [µM] | relative IC50 (MCF-7 [17]; 4-OH-tamoxifen in medium 1 µM) [µM] | SMILES | drug sensitivity score (T-47D Tam2) | drug sensitivity score (ZR-75-1 Tam2 [1]) | drug sensitivity score (ZR-75-1 Tam1 [2]) | drug sensitivity score (BT-474 Tam2 [3]) | drug sensitivity score (MCF-7 Tam1 [4]) | drug sensitivity score (T-47D Tam1 [5]) | drug sensitivity score (BT-474 Tam1 [6]) | drug sensitivity score (ZR-75-1 [7]; 4-OH-tamoxifen in medium 0 µM) | drug sensitivity score (ZR-75-1 [7]; 4-OH-tamoxifen in medium 1 µM) | drug sensitivity score (MCF-7 [8]; 4-OH-tamoxifen in medium 0 µM) | drug sensitivity score (MCF-7 [8]; 4-OH-tamoxifen in medium 1 µM) | drug sensitivity score (BT-474 [9]; 4-OH-tamoxifen in medium 0 µM) | drug sensitivity score (BT-474 [9]; 4-OH-tamoxifen in medium 1 µM) | drug sensitivity score (T-47D [10]; 4-OH-tamoxifen in medium 0 µM) | drug sensitivity score (T-47D [10]; 4-OH-tamoxifen in medium 1 µM) | relative IC50 (ZR-75-1 Tam2 [11]) [µM] | relative IC50 (ZR-75-1 Tam1 [12]) [µM] | relative IC50 (ZR-75-1 [16]; 4-OH-tamoxifen in medium 0 µM) [µM] | relative IC50 (ZR-75-1 [16]; 4-OH-tamoxifen in medium 1 µM) [µM] |
| --- | --- | --- | --- | --- | --- | --- | --- | --- | --- | --- | --- | --- | --- | --- | --- | --- | --- | --- | --- | --- | --- | --- | --- | --- | --- | --- | --- | --- | --- |
| 0.0131 | > 1 | 0.0124 | > 1 | 0.0257 | 0.0158 | > 1 | > 1 |  |  | CN(C)C/C=C/C(=O)Nc1cc2c(Nc3ccc(F)c(Cl)c3)ncnc2cc1O[C@H]1CCOC1 [Afatinib (BIBW2992, Tovok)] | 0.583 | 0 | 0 | 21.8 | 0 | 1.83 | 21.9 | 0 | 0 | 0 | 0.328 | 15.3 | 20.5 | 0 | 0 | > 1 | > 1 | > 1 | > 1 |
| 0.0659 | > 1 | 0.0894 | > 1 | 0.113 | 0.0824 | > 1 | > 1 |  |  | CS(=O)(=O)CCNCc1ccc(-c2ccc3ncnc(Nc4ccc(OCc5cccc(F)c5)c(Cl)c4)c3c2)o1 [Lapatinib] | 0.567 | 0 | 0 | 12.8 | 0 | 4 | 11.6 | 0 | 0 | 0 | 1.43 | 8.29 | 12.2 | 0 | 0 | > 1 | > 1 | > 1 | > 1 |
| > 10 | 1.17 | > 10 | 1.7 | > 10 |  |  | 1.87 | 1.82 | 1.62 | C[C@]1(O)C[C@@H](c2nc(-c3ccc4ccc(-c5ccccc5)nc4c3)c3c(N)nccn32)C1 [Linsitinib (OSI-906)] | 1.19 | 0.681 | 0.0832 | 0 | 3.94 | 7.18 | 0 | 0 | 1.21 | 4.58 | 5.68 | 0 | 0.462 | 2.48 | 2.45 |  |  | > 10 |  |
